Measurements taken from the supplement of paper PMC10307832.

Assays:
Experiment in all cases: relative viability (nuclei count vs DMSO), 5 days (fraction); higher = more cells survive
[1] = compound: CC1=NC=CC(=C1)C2=CC=C(C=C2)CC(=O)NC3=CC=C(C=C3)C4=CN=CC=C4 [Wnt-C59] + COc1cccc2cc(-c3nc([C@H]4CC[C@H](C(=O)O)CC4)n4ncnc(N)c34)[nH]c12 [OSI-027] (partner 0.5 µM)
How it was run: (§1)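 Lung cancer cell lines in 1536-well plates were dosed by pin tool the day after seeding, either with one drug alone or with a fixed anchor-drug dose plus five library-drug doses (not always all listed) in √10 steps. After 5 days, cells were fixed and their nuclei stained in one step (final 0.05% Triton X-100, 1% formaldehyde, 1 ug/ml Hoechst), then counted on 4× images. Relative viability is the nuclei count in treated wells divided by that in vehicle wells. Values are medians of duplicate plates.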

[2] = compound: CC1=NC=CC(=C1)C2=CC=C(C=C2)CC(=O)NC3=CC=C(C=C3)C4=CN=CC=C4 [Wnt-C59] + C[C@]1(O)C[C@@H](c2nc(-c3ccc4ccc(-c5ccccc5)nc4c3)c3c(N)nccn32)C1 [Linsitinib] (partner 1 µM)
How it was run: as §1

[3] = compound: CS(=O)(=O)CCNCc1ccc(-c2ccc3ncnc(Nc4ccc(OCc5cccc(F)c5)c(Cl)c4)c3c2)o1 [Lapatinib] + CC(=O)c1c(C)c2cnc(Nc3ccc(N4CCNCC4)cn3)nc2n(C2CCCC2)c1=O [Palbociclib] (partner 0.5 µM)
How it was run: as §1

[4] = compound: CS(=O)(=O)CCNCc1ccc(-c2ccc3ncnc(Nc4ccc(OCc5cccc(F)c5)c(Cl)c4)c3c2)o1 [Lapatinib] + C[C@]1(O)C[C@@H](c2nc(-c3ccc4ccc(-c5ccccc5)nc4c3)c3c(N)nccn32)C1 [Linsitinib] (partner 1 µM)
How it was run: as §1

Row | Cell Line | relative viability ([1]; first compound 0.001 µM) | relative viability ([1]; first compound 0.01 µM) | relative viability ([1]; first compound 0.03162 µM) | relative viability ([1]; first compound 0.1 µM) | relative viability ([2]; first compound 0.001 µM) | relative viability ([2]; first compound 0.01 µM) | relative viability ([2]; first compound 0.03162 µM) | relative viability ([2]; first compound 0.1 µM) | relative viability ([3]; first compound 0.02 µM) | relative viability ([3]; first compound 0.06325 µM) | relative viability ([3]; first compound 0.2 µM) | relative viability ([3]; first compound 0.6325 µM) | relative viability ([3]; first compound 2 µM) | relative viability ([4]; first compound 0.02 µM) | relative viability ([4]; first compound 0.06325 µM) | relative viability ([4]; first compound 0.2 µM) | relative viability ([4]; first compound 0.6325 µM) | relative viability ([4]; first compound 2 µM)
1 | PC-14 | 1.01 | 0.897 | 1.18 | 0.731 | 0.936 | 1.04 | 0.958 | 0.944 | 0.497 | 0.526 | 0.451 | 0.373 | 0.0812 | 0.86 | 0.929 | 0.885 | 0.904 | 0.644
2 | RERF-LC-KJ | 0.599 | 0.504 | 0.658 | 0.56 | 0.914 | 0.79 | 0.908 | 0.85 | 1.11 | 0.885 | 0.996 | 0.864 | 0.799 | 0.841 | 0.806 | 0.782 | 0.748 | 0.697
3 | SK-LU-1 | 0.406 | 0.283 | 0.39 | 0.364 | 1.01 | 1.12 | 1.07 | 1.03 | 0.36 | 0.394 | 0.455 | 0.44 | 0.392 |  | 0.783 | 1.19 | 1.01 | 1.24
4 | SK-MES-1 | 0.673 | 0.54 | 0.666 | 0.567 | 1.11 | 1.1 | 1.02 | 1.08 | 0.338 | 0.384 | 0.326 | 0.328 | 0.299 | 1.12 | 1.01 | 0.97 | 0.69 | 0.663
5 | SW 1573 | 0.684 | 0.659 | 0.63 | 0.639 | 0.696 | 0.806 | 0.874 | 0.862 |  | 0.384 | 0.411 | 0.372 | 0.359 | 0.843 | 0.82 | 0.76 | 0.784 | 0.794
